The text below walks through data of PubChem BioAssay AID1996.

≈ marks a conversion by molar mass, not a printed value.

For the data set the following is noted: buffer; pH 7.4; 200.0 µM.
One may read the solubility (kinetic) as the concentration staying in solution when a stock, usually in DMSO, is diluted into the medium. The molecule `Cc1nc2ccccc2c(=O)n1-c1ccc(F)cc1F` gave a kinetic solubility of 36.9 µg/mL (≈ 136 µM).

Consider `CCOc1ccc2[nH]c3c(NCC(C)C)ncnc3c2c1`, for which the solubility (kinetic) came out at 5.1 µg/mL (≈ 17.9 µM).

The molecule `Cc1ccc(S(=O)(=O)N2CCN(C(=O)COC(=O)/C=C/c3ccc([N+](=O)[O-])cc3)CC2)c(C)c1` came in with a kinetic solubility of 1.9 µg/mL (≈ 3.9 µM).

`Cc1nc2ccccc2n1C1CCN(C(=O)Nc2ccccc2)CC1` showed a kinetic solubility above 50.2 µg/mL.

On to `Cc1cc(C)nc(N(C#N)Cc2ccc(Cl)cc2)n1`, for which the kinetic solubility is 21.7 µg/mL (≈ 79.6 µM).

In the case of `Cn1c(N)c(C(=O)CSc2nnc(N)s2)c(=O)n(C)c1=O`, the solubility (kinetic) was above 49.3 µg/mL.

`C(=N\Nc1nc2ccccc2[nH]1)/C1CCCCC1` returned a solubility (kinetic) above 36.3 µg/mL.

Take `N#Cc1cccc(C(=O)Nc2cc(S(=O)(=O)N3CCOCC3)ccc2N2CCCC2)c1`: the kinetic solubility was above 66.1 µg/mL.

For `Cc1ccc(C)c(C(C)NC(=O)C2CCCO2)c1` (configuration not stated), the kinetic solubility is 36.7 µg/mL (≈ 148 µM).

`CC(=O)N1CCN(c2ccc(C(N)=O)cc2[N+](=O)[O-])CC1` registered a kinetic solubility above 43.8 µg/mL.

`CC(=O)c1c(C)n(Cc2ccccc2)c2ccc(O)cc12`: the solubility (kinetic) was 0.7 µg/mL (≈ 2.51 µM).

Turning to `CC1CCCCC1NC(=O)COC(=O)c1cc(=O)[nH]c2ccccc12` (configuration not stated), the kinetic solubility amounted to 6.8 µg/mL (≈ 19.9 µM).

Take `O=C(NCCOC(=O)c1ccccc1)c1ccc([N+](=O)[O-])cc1`: the solubility (kinetic) turned out to be 14 µg/mL (≈ 44.5 µM).

Take `CCOC(=O)COc1ccc2c(c1)c(C(C)=O)c(C)n2Cc1ccccc1`: the kinetic solubility was found to be 6.9 µg/mL (≈ 18.9 µM).

`Cc1cccc(N=C2NC(=O)/C(=C/c3cccnc3)S2)c1C` showed a kinetic solubility of 5.1 µg/mL (≈ 16.5 µM).

Molecule `CCN(CC(=O)N1CCOCC1)S(=O)(=O)c1ccccc1` displayed a kinetic solubility above 46.9 µg/mL.

For the molecule `Cc1ccccc1NC(=O)NC1(C(=O)N2CCC(O)CC2)CCCCC1`, the solubility (kinetic) amounted to 44.1 µg/mL (≈ 123 µM).

`Cc1cccc(C)c1NC(=S)N(CCc1ccncc1)C(C)C`: the kinetic solubility is 45.6 µg/mL (≈ 139 µM).

In turn, `CCCN1C(=O)c2ccc(C(=O)Nc3ccccc3C(=O)O)cc2C1=O` had a solubility (kinetic) above 52.9 µg/mL.

`CC(=O)NC1c2ccccc2C(=O)N1Cc1ccccc1` (configuration not stated) showed a kinetic solubility of 39.9 µg/mL (≈ 142 µM).

Turning to `Nc1ccc(C(=O)NC23CC4CC(CC(C4)C2)C3)cc1`, the solubility (kinetic) worked out at 37.3 µg/mL (≈ 138 µM).

The molecule `CCOC(=O)c1sc(=S)n(-c2ccccc2Cl)c1C` came in with a solubility (kinetic) of 2.7 µg/mL (≈ 8.6 µM).

With `C=CCn1c(NCc2ccc(OC)cc2)nc2ccccc21`, the kinetic solubility was 33.7 µg/mL (≈ 115 µM).

The molecule `CCN(c1ccccc1)S(=O)(=O)c1ccc(Cl)nc1` registered a kinetic solubility of 32 µg/mL (≈ 108 µM).

On to `Cc1ccccc1NC(=S)NNC(=O)c1ccncc1`, for which the kinetic solubility was above 43 µg/mL.

Consider `O=C(CSc1nncn1-c1ccccc1F)NC1CC1`, for which the solubility (kinetic) is above 43.8 µg/mL.

`CC(NC(=O)COC(=O)CCC(=O)c1ccc(F)cc1)c1ccccc1` (configuration not stated) gave a solubility (kinetic) above 53.6 µg/mL.

`CSc1ncccc1C(=O)NC(C)CCc1ccccc1` (configuration not stated) showed a solubility (kinetic) of 11.9 µg/mL (≈ 39.6 µM).

`C=CCn1c(SCC(=O)N2CCOCC2)nc2sc(CC)cc2c1=O` showed a solubility (kinetic) above 56.9 µg/mL.

Turning to `O=C(COc1ccccc1)NCC1COc2ccccc2O1` (configuration not stated), the solubility (kinetic) came to 44.8 µg/mL (≈ 150 µM).

Molecule `Cc1cc(C)c(-c2c(O)c3cccnc3n(C)c2=O)c(C)c1` yielded a kinetic solubility of 43.4 µg/mL (≈ 147 µM).

`CC(C)c1ccc(NC(=O)CNCC(c2ccccc2)N(C)C)cc1` (configuration not stated) yielded a kinetic solubility of 32.9 µg/mL (≈ 96.9 µM).

As to `CCCc1cnc(N2CCN(S(C)(=O)=O)CC2)nc1`, the kinetic solubility was above 42.7 µg/mL.

Regarding `COc1ccc(NC(=O)CCCC(=O)O)cc1Cl`, the solubility (kinetic) is above 40.8 µg/mL.

The molecule `O=[N+]([O-])c1ccc2cn[nH]c2c1` gave a solubility (kinetic) above 24.5 µg/mL.

Consider `O=[N+]([O-])c1ccc(-n2ccnc2)cc1`, for which the solubility (kinetic) was above 28.4 µg/mL.

As to `CCOc1ccc(-c2ncncc2-c2ccc(OC)c(OC)c2)c(O)c1`, the solubility (kinetic) is 3.6 µg/mL (≈ 10.2 µM).

In turn, `COc1cccc(N2C(=O)/C(=C\c3cccs3)NC2=S)c1` displayed a kinetic solubility of 4.1 µg/mL (≈ 13 µM).

With `CCCNC(=O)Cc1c(C)oc2ccccc12`, the kinetic solubility is above 34.7 µg/mL.

`O=C(c1ccccc1)C1CCN(C(=O)c2ccc(Cl)cc2)CC1` yielded a kinetic solubility above 49.2 µg/mL.

With `CN(C)CCn1c(N)nc2ccccc21`, the solubility (kinetic) was above 30.6 µg/mL.

For the molecule `CC(C)c1ccc(NC(=S)N2CCN(C)CC2)cc1`, the kinetic solubility is above 41.6 µg/mL.

`O=C(NC1CCCc2ccccc21)c1ccccc1OC(F)F` (configuration not stated) displayed a solubility (kinetic) of 15.5 µg/mL (≈ 48.8 µM).

`NC(=O)COC(=O)c1c2c(nc3ccccc13)CCCCC2` showed a kinetic solubility above 44.8 µg/mL.

For `CCOC(=O)c1cc(S(=O)(=O)N2CCOCC2)cn1C`, the solubility (kinetic) is 45.1 µg/mL (≈ 149 µM).

Turning to `CC1CCN(CCC(=O)Nc2ccc(F)c(F)c2)CC1`, the kinetic solubility is above 42.3 µg/mL.

`COC(=O)c1nn(-c2cccc(C(F)(F)F)c2)ccc1=O`: the kinetic solubility was above 44.7 µg/mL.

`Cc1ccc(CNC(=O)c2ccc(Cl)c(S(N)(=O)=O)c2)n1C` had a solubility (kinetic) of 41.5 µg/mL (≈ 121 µM).

`O=C(COC(=O)c1cccs1)Nc1ccccc1C(F)(F)F` gave a solubility (kinetic) of 2.5 µg/mL (≈ 7.59 µM).

`Cc1cccc(-c2nsc(SCC(=O)NCC3CCCO3)n2)c1` (configuration not stated) displayed a kinetic solubility above 52.4 µg/mL.

The molecule `Cc1ccc2[nH]c(C)c(CCNC(=O)c3c(N)no[n+]3[O-])c2c1` came in with a solubility (kinetic) of 5 µg/mL (≈ 15.9 µM).

In turn, `Cc1ccc(CNCc2cccnc2)s1.Cl` registered a solubility (kinetic) above 38.2 µg/mL.
